According to US9938292B2 (GUANGDONG ZHONGSHENG PHARMACEUTICAL CO., LTD, priority 2014, dated 2018):

What follows are compounds tested on Hedgehog signaling pathway (assay: Gli-Luc luciferase reporter gene assay in C3H10T1/2/Gli-Luc cells under Shh-N stimulation). Details: Mus musculus, C3H 10T1/2, 24 h, luciferase RLU, read-out: biological activity: IC50 of the inhibitory activities of compounds on the hedgehog pathway.
Format: cell-based
Excerpt: The luciferase (Gli-Luc) reporter gene with Gli response element was transfected into C3H10T1/2 cells, under Shh-N stimulation conditions, determine the Hedgehog signaling pathway inhibitors through the detection of gene expression in cell activity report. In this study, we evaluated the inhibitory effects of compounds on Hedgehog signaling pathway in the IC50 value of the compound as an index.
Cell lines: C3H10T1/2/Gli-Luc stable cell line • C3H10T1/2/Gli-Luc Cell culture medium (DMEM/high glucose HyClone, #SH30022.01B; 10% serum Hyclone, #SV30087; 0.4% Hygromycin B Roche, #13398200) • 0.25% Trypsin-EDTA (Gibco, #25200)
Shh-N, HEK293/SHH-N stable cell culture supernatant
Inoculate the logarithmic growth phase of C3H10T1/2/Gli-Luc cells into a 96-well culture plate with 20000 cells per well, cells were cultured in a 37° C., 5% CO2 incubator overnight. The next day, the compounds were diluted in the following ways: the positive compound GDC0449 (1 mM) and the compounds (1 mM) to be measured were serially diluted to 7 concentrations by DMSO according to 1:3 and 1:10 respectively, the eighth is for DMSO control, and then diluted with fresh medium 100 times. The medium of the cells cultured overnight was removed, 80 μL fresh culture medium was added per well, then 20 μL gradiently diluted positive compound and compounds to be measured and 100 μL 30 nM Shh-N containing conditioned medium were added, each concentration repeated 2 wells, at the same time, positive and negative reference well were set (i.e. Shh Ctrl: 80 μL fresh medium+20 μL 1% DMSO containing medium+100 μL 30 nM Shh-N containing conditioned medium; Unstimulated Ctrl: 180 μL fresh medium+20 μL 1% DMSO containing medium), cells were cultured in the incubator for further 24 h.
Intracellular luciferase activity detection: take the cells out of 96-well plate, discard the culture medium, the cells were washed with PBS twice, then each well added with 20 μL lysate (Promega E1531), oscillate pyrolysis at room temperature for 30 min. 5 μL cell lysates were transferred to 384-well plate (Greiner 781074), then each well was added with 25 μL luciferase reaction liquid (Promega E1501), after rapid mixed, immediately placed into the VarioSkan Flash multi-function reading instrument to read the relative light units (RLU) value.
Data analysis: using Prism's GraphPad 5 for data analysis. RLU reading to the logarithmic mapping of compound concentration on behalf of luciferase activity, and then curve fitting using the following equation to give IC50 value, Y (RLU)=minimum+(maximum−minimum)/(1+10^(log of compound concentration−Log IC50)).

| Structure (SMILES) | IC50 |
| --- | --- |
| CC1CN(c2ccc(N3C[C@@H](C)O[C@@H](C)C3)cc2)C(=O)c2cccc(-c3ccc(C#N)cc3)c21 (stereo partly drawn) [Embodiment 87, 4-(2-(4-((2S,6R)-2,6-dimethylmorpholino)phenyl)-4-methyl-1-oxo-1,2,3,4-tetrahydroisoquinolin-5-yl)benzonitrile] | 100 to 500 nM |
| COc1c(-c2ccc(N3C[C@@H](C)O[C@@H](C)C3)cc2)cnc2c(-c3ccc(C#N)cc3)cccc12 [Embodiment 88, 4-(3-(4-((2S,6R)-2,6-dimethylmorpholino)phenyl)-4-methoxyquinolin-8-yl) benzonitrile] | ≤ 50 nM |
| COc1c(-c2ccc(N3C[C@@H](C)O[C@@H](C)C3)cc2)cnc2c(-c3ccc(C(F)(F)F)cc3)cccc12 [Embodiment 89, (2R,6S)-4-(4-(4-methoxy-8-(4-(trifluoromethyl)phenyl)quinolin-3-yl)phenyl)-2,6-dimethylmorpholine] | ≤ 50 nM |
| COc1c(-c2ccc(N3C[C@@H](C)O[C@@H](C)C3)cc2)cnc2c(-c3ccc(OC(F)(F)F)cc3)cccc12 [Embodiment 91] | ≤ 50 nM |
| COc1c(-c2ccc(N3C[C@@H](C)O[C@@H](C)C3)cc2)cnc2c(-c3ccc(F)nc3)cccc12 [Embodiment 93] | ≤ 50 nM |
| COc1c(-c2ccc(N3C[C@@H](C)O[C@@H](C)C3)cc2)cnc2c(-c3ccc(C)nc3)cccc12 [Embodiment 94] | ≤ 50 nM |
| COc1c(-c2ccc(N3C[C@@H](C)O[C@@H](C)C3)cc2)cnc2c(-c3ccc(Cl)nc3)cccc12 [Embodiment 95] | ≤ 50 nM |
| COc1c(-c2ccc(N3C[C@@H](C)O[C@@H](C)C3)cc2)cnc2c(-c3ccc(S(=O)(=O)N4CCOCC4)cc3)cccc12 [Embodiment 96] | 100 to 500 nM |
| COc1c(-c2ccc(N3C[C@@H](C)O[C@@H](C)C3)cc2)cnc2c(-c3ccncc3)cccc12 [Embodiment 97] | 100 to 500 nM |
| COc1c(-c2ccc(N3C[C@@H](C)O[C@@H](C)C3)cc2)cnc2c(-c3ccc(Cl)c(Cl)c3)cccc12 [Embodiment 98] | ≤ 50 nM |
| COc1ccc(-c2cccc3c(OC)c(-c4ccc(N5C[C@@H](C)O[C@@H](C)C5)cc4)cnc23)cn1 [Embodiment 100] | 100 to 500 nM |
| CNC(=O)c1ccc(-c2cccc3c(OC)c(-c4ccc(N5C[C@@H](C)O[C@@H](C)C5)cc4)cnc23)cn1 [Embodiment 101] | 100 to 500 nM |
| COc1c(-c2ccc(N3C[C@@H](C)O[C@@H](C)C3)cc2)cnc2c(-c3ccc(C#N)c(F)c3)cccc12 [Embodiment 102] | 50 to 100 nM |
| COc1c(-c2ccc(N3C[C@@H](C)O[C@@H](C)C3)cc2)cnc2c(-c3ccc(S(C)(=O)=O)cc3Cl)cccc12 [Embodiment 103] | 50 to 100 nM |
| COc1c(-c2ccc(N3C[C@@H](C)O[C@@H](C)C3)cc2)cnc2c(-c3ccc(C#N)cc3F)cccc12 [Embodiment 104] | ≤ 50 nM |
| COc1c(-c2ccc(N3C[C@@H](C)O[C@@H](C)C3)cc2)cnc2c(-c3ccc(C#N)cc3C)cccc12 [Embodiment 105] | ≤ 50 nM |
| COc1c(-c2ccc(N3C[C@@H](C)O[C@@H](C)C3)cc2)cnc2c(-c3ccc(C(F)(F)F)nc3)cccc12 [Embodiment 106] | 50 to 100 nM |
| COc1c(-c2ccc(N3C[C@@H](C)O[C@@H](C)C3)cc2)cnc2c(-c3cnn(C)c3)cccc12 [Embodiment 108] | 100 to 500 nM |
| COc1c(-c2ccc(N3C[C@@H](C)O[C@@H](C)C3)cc2)cnc2c(-c3ccc4c(c3)OCO4)cccc12 [Embodiment 109] | 50 to 100 nM |
| COc1c(-c2ccc(N3C[C@@H](C)O[C@@H](C)C3)cc2)cnc2c(-c3cnc(N(C)C)nc3)cccc12 [Embodiment 110] | 100 to 500 nM |

| Structure (SMILES) | IC50 |
| --- | --- |
| COc1c(-c2ccc(N3C[C@@H](C)O[C@@H](C)C3)cc2)cnc2c(-c3ccc(-c4ncc[nH]4)cc3)cccc12 [Embodiment 111] | 100 to 500 nM |
| COc1c(-c2ccc(N3C[C@@H](C)O[C@H](C)C3)cc2)cnc2c(-c3ccc(C#N)cc3)cccc12 [Embodiment 112] | ≤ 50 nM |
| COc1c(-c2ccc(N3C[C@H](C)C[C@H](C)C3)cc2)cnc2c(-c3ccc(C#N)cc3)cccc12 [Embodiment 113] | ≤ 50 nM |
| COc1c(-c2ccc(N3C[C@@H](C)O[C@@H](C)C3)cc2)cnc2c(-c3nc4ccccc4[nH]3)cccc12 [Embodiment 114, (2S,6R)-4-(4-(8-(1H-benzo[d]imidazol-2-yl)-4-methoxyquinolin-3-yl)phenyl)-2,6-dimethylmorpholine] | 1000 to 5000 nM |
| COc1c(-c2ccc(N3C[C@@H](C)O[C@@H](C)C3)cc2)cnc2c(-c3nc(C#N)cs3)cccc12 [Embodiment 115, 2-(3-(4-((2S,6R)-2,6-dimethylmorpholino)phenyl)-4-methoxyquinolin-8-yl)thiazole-4-carbonitrile] | 1000 to 5000 nM |
| COc1c(-c2ccc(N3C[C@@H](C)O[C@@H](C)C3)cc2)cnc2c(C3CCC(C#N)CC3)cccc12 (stereo partly drawn) [Embodiment 116, 4-(3-(4-((2S,6R)-2,6-dimethylmorpholino)phenyl)-4-methoxyquinolin-8-yl) cyclohexane carbonitrile] | 100 to 500 nM |
| COc1c(-c2ccc(N3C[C@@H](C)O[C@@H](C)C3)nc2)cnc2c(NC(=O)C(C)(C)C)cccc12 [Embodiment 117, N-(3-(6-((2S,6R)-2,6-dimethylmorpholino)pyridin-3-yl)-4-methoxyquinolin-8-yl) pivalamide] | 1000 to 5000 nM |
| C[C@@H]1CN(c2ccc(-c3cnc4c(-c5ccc(C#N)cc5)cccc4c3Cl)cc2)C[C@H](C)O1 [Embodiment 118, 4-(4-chloro-3-(4-((2S,6R)-2,6-dimethylmorpholino)phenyl)quinolin-8-yl)benzonitrile] | 50 to 100 nM |
| C[C@@H]1CN(c2ccc(-c3cnc4c(-c5ccc(C#N)cc5)cccc4c3N(C)C)cc2)C[C@H](C)O1 [Embodiment 119, 4-(4-(dimethylamino)-3-(4-((2S,6R)-2,6-dimethylmorpholino)phenyl)quinolin-8-yl) benzonitrile] | 50 to 100 nM |
| C[C@@H]1CN(c2ccc(-c3cnc4c(-c5ccc(C#N)cc5)cccc4c3S(C)(=O)=O)cc2)C[C@H](C)O1 [Embodiment 120, 4-(3-(4-((2S,6R)-2,6-dimethylmorpholino)phenyl)-4-(methylsulfonyl)quinolin-8-yl) benzonitrile] | 500 to 1000 nM |
| C[C@@H]1CN(c2ccc(-c3cnc4c(-c5ccc(C#N)cc5)cccc4c3C3CC3)cc2)C[C@H](C)O1 [Embodiment 121, 4-(4-cyclopropyl-3-(4-((2S,6R)-2,6-dimethylmorpholino)phenyl)quinolin-8-yl) benzonitrile] | ≤ 50 nM |
| Cc1c(-c2ccc(N3C[C@@H](C)O[C@@H](C)C3)cc2)cnc2c(-c3ccc(C#N)cc3)cccc12 [Embodiment 122] | 50 to 100 nM |
| C[C@@H]1CN(c2ccc(-c3cnc4c(-c5ccc(C#N)cc5)cccc4c3C#N)cc2)C[C@H](C)O1 [Embodiment 124] | 50 to 100 nM |
| Cc1cc(C#N)ccc1-c1cccc2c(C3CC3)c(-c3ccc(N4C[C@@H](C)O[C@@H](C)C4)nc3)cnc12 [Embodiment 125] | ≤ 50 nM |
| C[C@@H]1CN(c2ccc(-c3cnc4c(-c5ccc(C#N)cc5)cccc4c3N3CCC3)cc2)C[C@H](C)O1 [Embodiment 126, 4-(4-(azetidin-1-yl)-3-(4-((2S,6R)-2,6-dimethylmorpholino)phenyl)quinolin-8-yl) benzonitrile] | 100 to 500 nM |
| C[C@@H]1CN(c2ccc(-c3cnc4c(-c5ccc(C#N)cc5)cccc4c3)cc2)C[C@H](C)O1 [Embodiment 127, 4-(3-(4-((2S,6R)-2,6-dimethylmorpholino)phenyl)quinolin-8-yl)benzonitrile] | 100 to 500 nM |
| COC(=O)c1c(-c2ccc(N3C[C@@H](C)O[C@@H](C)C3)cc2)cnc2c(-c3ccc(C#N)cc3)cccc12 [Embodiment 128, methyl 8-(4-cyanophenyl)-3-(4-((2S,6R)-2,6-dimethylmorpholino)phenyl)quinoline-4-carboxylate] | 500 to 1000 nM |
| CC(=O)Nc1c(-c2ccc(N3C[C@@H](C)O[C@@H](C)C3)cc2)cnc2c(-c3ccc(C#N)cc3)cccc12 [Embodiment 129, N-(8-(4-cyanophenyl)-3-(4-((2S,6R)-2,6-dimethylmorpholino)phenyl)quinolin-4-yl) acetamide] | 50 to 100 nM |
| C[C@@H]1CN(c2ccc(-c3cnc4c(-c5ccc(C#N)cc5)cccc4c3NS(C)(=O)=O)cc2)C[C@H](C)O1 [Embodiment 130] | 500 to 1000 nM |
| Cc1c(-c2ccc(N3C[C@@H](C)O[C@@H](C)C3)nc2)cnc2c(-c3ccc(C#N)cc3)cccc12 [Embodiment 132, 4-(3-(6-((2S,6R)-2,6-dimethylmorpholino)pyridin-3-yl)-4-methylquinolin-8-yl) benzonitrile] | ≤ 50 nM |
